Source: patent publication US11549115B2, “Compositions and methods for regulated gene expression” (YALE UNIVERSITY, priority 2017, dated 2023)

Experiment: Sialic acid in murine fecal samples (LC-MS/MS)
Format: in vivo
Conditions: Swiss Webster, mouse, faeces; oral gavage, gnotobiotic mice monocolonized with B. thetaiotaomicron BT0455
Protocol: Groups of 6 germ-free Swiss Webster mice were orally gavaged with 1×10^9 CFU of the desired B. thetaiotaomicron strain. Fecal samples (˜100-200 mg) were collected daily for 12 days. aTC (100 μg/mL) was administered in drinking water for 12 hours after fecal collection on day 1. Fecal samples were homogenized in 1 mL of 1× tris-buffered saline (TBS) with a single 5 mm stainless steel bead using a bead beater (BioSpec Products) at 26° C. for 1 minute on the high setting, followed by vortexing at top speed for 8 minutes. Samples were then centrifuged at 500×g for 1 minute to pellet fibrous and insoluble matter. […]
For sialic acid measurements, 5 μL of internal standard solution (50 μM 1,2,3-^13C3 sialic acid in H2O) were added to each sample (20 μL) and proteins were precipitated through addition of 100 μL organic solvents at −20° C. […] The MassHunter Quantitative Analysis Software (Agilent, version 7.0) was used for peak integration with the most abundant ion fragment as quantifier and the others as qualifiers of the peak. Quantification was based on calibration curves using commercially available sialic acid and the signal intensity of the internal standard spiked into each sample.

Work on `CC(=O)N[C@H]1[C@H]([C@H](O)[C@H](O)CO)OC(O)(C(=O)O)C[C@@H]1O` (stereo partly shown) [sialic acid, N-acetylneuraminic acid] yielded a half-life of ~9 h.
